Laboratory results: patent US10974081B2, “Treatment and prevention of sleep disorders” (Purdue Pharma L.P., priority 2016, dated 2021)
Like-named read-outs stand apart in the source and are kept apart here.

Key:
[1] = system: rats
[2] = In vivo clearance of radiolabeled Compound (1D), rats; settings: within 48 hours of oral dosing
[3] = in vivo; settings: male, Crl:CD(SD), rat, po, no-observed-adverse-effect-level (NOAEL)
[4] = in vivo; settings: male, Crl, CD(SD), rat, brain homogenate and plasma, iv, 0.5 mg/kg
[5] = system: rat liver microsomes; experiment: In vitro metabolic stability, rat liver microsomes; type: in vitro ADME; settings: 2 μM, % remaining after 30 minutes at 37° C.
Method: (§1) The comparative in vitro metabolic stabilities of Compounds (1F), […], and W-212393 were determined upon exposure to human liver microsomes or rat liver microsomes according to a procedure disclosed in, e.g., Example 14 of U.S. Pat. No. 9,290,488, which is hereby incorporated by reference in its entirety. Liver microsomes from Crj;CD rats or humans were incubated with 2 μM of each tested compound; thereafter, the supernatant was analyzed by HPLC-MS for the concentration of the tested compound present. Human liver microsomes, pooled, 20 mg/mL, were obtained from […] #H0610). […] Alternatively and if desired, rat liver microsomes can be obtained commercially from, e.g., XenoTech (Sprague-Dawley rat liver microsomes, pooled, 20 mg/mL, cat #R1000). β-NADPH (β-nicotinamide adenine dinucleotide 2'-phosphate reduced tetrasodium salt hydrate) was obtained from Oriental Yeast Co., Ltd. (Tokyo, Japan). Each tested compound, present at an initial concentration of 2 μM, was incubated at 37° C. in the presence of 0.5 mg/mL of either human microsomes or rat microsomes in suspension in 50 mM Tris-HCl buffer (7.4 pH), 150 mM KCl, 10 mM MgCl2, and 1 mM β-NADPH. Incubation was initiated upon the addition of a 100-fold concentrated solution of the tested compound to one of the microsome preparations. Incubation was terminated by addition of a two-fold volume of a 1/1 mixture of acetonitrile/methanol after either 0 minutes or 30 minutes of incubation at 37° C. Thereafter, proteins and other macromolecules from the microsome preparation were removed by centrifugation. All incubations were conducted in duplicate. […] The HPLC system consisted of a Waters 2795 separations module (Waters Corp., Milford, Mass.) equipped with an inline degasser, temperature controlled auto-sampler, and column oven. The analytical column was a Waters […], 2.1 mm×20 mm column. The mass analyzer was a Waters ZQ, single quadrupole mass spectrometer equipped with an electrospray ionization source operating in the positive ionization mode and utilizing a stainless steel spray capillary. […]

[6] = Free unbound compound fraction, equilibrium dialysis of rat serum; type: in vitro ADME; settings: male, Crl:CD (SD), rat, rat serum; 2 μg/mL, 24 hours dialysis at 37° C.
Method: The extent of in vitro binding of Compound (1F) or W-212393 to rat serum was determined as an assessment of the availability of free unbound compound for modulating receptor activity according to a procedure disclosed in, e.g., Example 15 of U.S. Pat. No. 9,290,488, which is hereby incorporated by reference in its entirety. Serum from rats containing a tested compound in one chamber of a dialysis cell was dialyzed with phosphate buffered saline (“PBS”) in the other chamber; thereafter, the supernatant from each chamber was analyzed for the concentration of the tested compound present. […] The final concentration of each tested compound in the serum sample was adjusted to 2 μg/mL by adding an appropriate volume of PBS. A cell suitable for equilibrium dialysis was used in the determinations. A SPECTRA/POR dialysis membrane (with molecular mass cutoff of 12,000-14,000 Da, Spectrum Laboratories, Inc., Rancho Dominguez, Calif.) separated the dialysis cell into two chambers. A 500 μL aliquot of the serum sample containing a tested compound was applied to one chamber (serum chamber) of the dialysis cell. A 500 μL aliquot of PBS was applied to the other chamber (PBS chamber) of the dialysis cell. The dialysis study was conducted in duplicate for each tested compound. After 24 hours of equilibrium dialysis at 37° C., 30 μL of liquid from the serum chamber of the dialysis cell was collected and to this was added 270 μL of fresh PBS (this combination was designated Sample “A”). Then, 270 μL of liquid from the PBS chamber of the dialysis cell was collected and to this was added 30 μL of control rat serum (i.e., rat serum never exposed to any test compound, this combination was designated Sample “B”). […] Each supernatant was analyzed by LC-MS-MS. […] Thereafter, the percentage of free unbound tested compound was calculated from the ratio of the tested compound amount determined from Sample B divided by the sum of the tested compound amounts determined from Sample A and Sample B.

[7] = In vivo bioavailability after oral dosing; settings: male, Sprague-Dawley [Crl:CD(SD)], rat, plasma; 1 mg/kg oral, non-fasted; mean of multiple determinations
[8] = system: human liver microsomes; experiment: In vitro metabolic stability, human liver microsomes; type: in vitro ADME; settings: 2 μM, % remaining after 30 minutes at 37° C.
Method: as §1

## O=C(O)c1nc2ccccc2n([C@H]2C[C@H]3CCC[C@@H](C2)N3C2CC3CCCC(C3)C2)c1=O (stereo partly drawn) [Compound (1D)]
[1]; 30 mg/kg/day oral
  overall sleep effect: significant sleep-enhancing effects
[1]; 30 mg/kg/day oral for 7 days
  tachyphylaxis over the seven day period: minimal tachyphylaxis
[1]; 30 mg/kg/day oral, Day 1, 1 hour block at 4 hours after dosing (FIG. 5A)
  percentage of time spent in wakefulness: about 52%
[1]; 30 mg/kg/day oral, Day 1, 1 hour block at 4 hours after dosing (FIG. 5C)
  percentage of time spent in NREM sleep: about 41%
[1]; 30 mg/kg/day oral, Day 1, 1 hour block at 5 hours after dosing (FIG. 5C)
  percentage of time spent in NREM sleep: ~54%
[1]; 30 mg/kg/day oral, Day 1, 1 hour block at 7 hours after dosing (FIG. 5B)
  percentage of time spent in REM sleep: about 2.5%
[1]; 30 mg/kg/day oral, Day 1, 3 hour block, 3 to 6 hours after dosing (FIG. 6A)
  total amount of wakefulness: about 47%
[1]; 30 mg/kg/day oral, Day 1, 3 hour block, 3 to 6 hours after dosing (FIG. 6C)
  total amount of NREM sleep: about 46%
[1]; 30 mg/kg/day oral, Day 1, 3 hour blocks (FIG. 6B)
  effect on percentage of time spent in REM sleep: no significant effects
[1]; 30 mg/kg/day oral, Day 4 (FIG. 7B, 8B)
  effect on percentage of time spent in REM sleep: no significant effects
[1]; 30 mg/kg/day oral, Day 4, 3 to 6 hours after dosing (FIG. 8A)
  total amount of wakefulness: about 55%
[1]; 30 mg/kg/day oral, Day 4, 3 to 6 hours after dosing (FIG. 8C)
  total amount of NREM sleep: about 41%
[1]; 30 mg/kg/day oral, Day 4, 1 hour block at 4 hours after dosing (FIG. 7C)
  percentage of time spent in NREM sleep: about 42%
[1]; 30 mg/kg/day oral, Day 7 (FIG. 9B, 10B)
  effect on percentage of time spent in REM sleep: no significant effects
[1]; 30 mg/kg/day oral, Day 7, lights-out period (FIG. 9A)
  percentage of time spent in wakefulness versus vehicle: decreasing tendency
[1]; 30 mg/kg/day oral, Day 7, lights-out period (FIG. 9C)
  percentage of time spent in NREM sleep versus vehicle: increased tendency
[1]; Day 8 (no dosing) after 30 mg/kg/day for 7 days (FIG. 11B)
  effect on time spent in REM sleep: no effect
[1]; Day 8 (no dosing) after 30 mg/kg/day for 7 days, at 27, 35, and 46 hours (FIG. 11A)
  percentage of time spent in wakefulness versus vehicle: significantly increased
[1]; Day 8 (no dosing) after 30 mg/kg/day for 7 days, at 27, 35, and 46 hours (FIG. 11C)
  percentage of time spent in NREM sleep versus vehicle: significantly decreased
[2]; Rat (female)
  Average % Elimination, Fecal: 27.9%
  Average % Elimination, Fecal + Urinary: 94.7%
  Average % Elimination, Urinary: 66.8%
[2]; Rat (male)
  Average % Elimination, Fecal: 41.6%
  Average % Elimination, Fecal + Urinary: 96.0%
  Average % Elimination, Urinary: 54.4%
[3]
  NOAEL: 600 mg/kg

## CNC(=O)Cn1c(=O)n(C2CCN([C@@H]3Cc4cccc5cccc3c45)CC2)c2ccccc21 [Compound W-212393]
[4]
  Kp at 0.5 h: 0.5
[5]
  Rat Metabolic Stability (%): 58.4%
0.5/0.033
  brain penetration relative to average of Compound (1C): at least 15 times
0.5/0.040
  brain penetration relative to maximum value of Compound (1C): at least 13 times
[6]
  fraction unbound at 24 h, 2 μg/mL: < 0.001
[7]
  bioavailability: 2.1%
[8]
  Human Metabolic Stability (%): 27.3%
